Reference: publication PMC7748244 (ACS Infectious Diseases, 2020)

Biological target: T1, PfJmj3 (Plasmodium falciparum, UniProt Q8IIE4)
T1 sequence (Q8IIE4 1-446): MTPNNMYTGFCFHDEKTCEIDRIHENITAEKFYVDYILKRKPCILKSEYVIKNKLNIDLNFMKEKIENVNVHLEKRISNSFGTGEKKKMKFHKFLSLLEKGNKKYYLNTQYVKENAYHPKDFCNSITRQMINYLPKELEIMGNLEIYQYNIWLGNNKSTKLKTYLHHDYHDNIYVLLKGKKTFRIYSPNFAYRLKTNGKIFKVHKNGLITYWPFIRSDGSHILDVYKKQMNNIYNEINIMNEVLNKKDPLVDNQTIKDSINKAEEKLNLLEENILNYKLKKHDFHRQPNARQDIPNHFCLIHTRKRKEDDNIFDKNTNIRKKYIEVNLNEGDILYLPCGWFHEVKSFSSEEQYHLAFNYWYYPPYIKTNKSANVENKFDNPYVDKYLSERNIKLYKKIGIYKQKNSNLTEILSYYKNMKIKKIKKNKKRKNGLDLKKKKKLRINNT
Assay: Succinate-Glo luciferase-coupled assay
Format: biochemical

IC50	Compound
2.6 µM	Clc1ccc(N/N=C(\c2ccccc2)c2ccccn2)nc1 [JIB-04 E]
3.3 µM	CN(C)CCCNC(=O)c1ccc(-c2cc(O)c3ncccc3c2)cc1 [ML324]
2.4 µM	CC(C)C(=O)NC(c1ccco1)c1ccc2cccnc2c1O (stereo not drawn) [SD-70]
